Results from patent publication US20240034731A1, “AZA-QUINAZOLINE COMPOUNDS AND METHODS OF USE” (Iambic Therapeutics, Inc., priority 2022, published 2024).

Tests used:
CDK6/Cyclin D3 = CDK6/Cyclin D3 (Homo sapiens (Human), UniProt Q00534); assay: CDK6/Cyclin D3 ADP-Glo Kinase Assay; type: biochemical; settings: 100 uM ATP, read-out: CDK6/ CyclinD3 IC50
Method: CDK6/Cyclin D3 ADP-Glo Kinase Assay
The purpose of the CDK6/Cyclin D3 assay is to evaluate the inhibition (% inhibition and IC50 values) in the presence of small molecule inhibitors by using a Luminescent based ADP-Glo assay. CDK6/Cyclin D3 catalyzes the production of ADP from ATP. ADP-Glo assay monitors ADP producing biochemical reactions. ADP-Glo is performed in 2 steps upon completion of kinase reaction: a combined termination of kinase reaction and depletion of remaining ATP in the first step, and conversion of generated ADP to […] and the newly produced ATP to light output using luciferase/luciferin reaction in the second step. The luminescent signal generated is proportional to the ADP concentration produced and is correlated with the kinase activity CDK6/Cyclin D3 was purchased from Carna. […] The assay was initiated with the addition of ATP-containing substrate solution, following a 30-minute pre-incubation of enzyme and inhibitor at room temperature in the reaction mixture. The reaction was stopped after 90 minutes at room temperature by the addition of 10 uL of ADP-GLO Reagent. After a 90-minute incubation, 20 uL of Kinase Detection Reagent was added. Samples were incubated for 40 minutes, after which plate well luminescence was measured on a Envision microplate reader. The IC50 determinations were made from a plot of the fractional velocity as a function of inhibitor concentration fit to the 4 parameters IC50 equation.

CDK4/Cyclin D1 = CDK4/Cyclin D1 (Homo sapiens (Human), UniProt P11802); assay: CDK4/Cyclin D1 CHEF Assay (AQT0258 peptide); type: biochemical; settings: 200 uM ATP, read-out: CDK4/ CyclinD1 AQT IC50
Excerpt: CDK4/Cyclin D1 CHEF Assay
The purpose of CDK4/Cyclin D1 assay is to evaluate the inhibition (% inhibition and IC50 values) of small molecule inhibitors by using a Chelation-Enhance Fluorescence (CHEF) assay. In a CHEF assay, phosphorylation of a peptide substrate results in proportional increase in fluorescence. CHEF kinase assay use peptide substrates containing a synthetic alpha-amino acid with a side chain bearing an 8-hydroxyquinoline derivative (sulfonamido-oxide, Sox). Upon phosphorylation of a nearby serine, threonine or tyrosine and in the presence of Mg(II), the spectral properties of the Sox residue are altered, emitting 485 nm wavelength light when excited with a 360 nm wavelength light source. CDK4/Cyclin D1 catalyzes the phosphoryl transfer to the SOX-labeled substrate peptide AQT0258 from Assayquant Technologies. […] The reaction was initiated with the addition of substrate solution, following a 30-minute pre-incubation of enzyme and inhibitor at 22° C. in the reaction mix. Reactions were allowed to proceed for 3 hrs at 22° C., followed by fluorescence read of the reaction. The IC50 determinations were made from a plot of the fractional velocity as a function of inhibitor concentration fit to the 4 parameters IC50 equation.

CDK2/Cyclin E1 = CDK2/Cyclin E1 (Homo sapiens (Human), UniProt P24941); assay: CDK2/Cyclin E1 Full length ADP-Glo Kinase Assay; type: biochemical; settings: 20 uM ATP, read-out: CDK2/ CyclinE1 IC50
Method: CDK2/Cyclin E1 Full length ADP-Glo Kinase Assay
(§1) The purpose of CDK2/Cyclin E1 assay is to evaluate the inhibition (% inhibition and IC50 values) of small molecule inhibitors by using a Luminescent based ADP-Glo assay. CDK2/Cyclin E1 full length catalyzes the production of ADP from ATP. ADP-Glo assay monitors ADP producing biochemical reactions. ADP-Glo is performed in 2 steps upon completion of kinase reaction: a combined termination of kinase reaction and depletion of remaining ATP in the first step, and conversion of generated ADP to ATP and the newly produced ATP to light output using luciferase/luciferin reaction in the second step. The luminescent signal generated is proportional to the ADP concentration produced and is correlated with the kinase activity. CDK2/Cyclin E1 was purchased from Eurofins (Cat 14-475M). […] The assay was initiated with the addition of ATP-containing substrate solution, following a 30-minute pre-incubation of enzyme and inhibitor at room temperature in the reaction mixture. The reaction was stopped after 90 minutes at room temperature by the addition of 10 uL of ADP-GLO Reagent. After a 90 minute incubation, 20 uL of Kinase Detection Reagent was added. Samples were incubated for 40 minutes, after which plate well luminescence was measured on a Envision microplate reader. The IC50 determinations were made from a plot of the fractional velocity as a function of inhibitor concentration fit to the 4 parameters IC50 equation.

CDK1/Cyclin B1 = CDK1/Cyclin B1 (Homo sapiens (Human), UniProt P06493); assay: CDK1/Cyclin B1 ADP-Glo Kinase Assay; type: biochemical; settings: ADP-Glo, 80 uM ATP; read-out: CDK1 Cyclin B1 IC50
Method: CDK1/Cyclin B1 ADP-Glo Kinase Assay
as §1, with “CDK1/Cyclin B1” for “CDK2/Cyclin E1”, “CDK1/Cyclin B1” for “CDK2/Cyclin E1 full length”, “Carna” for “Eurofins”, “04-102).” for “14-475M).”

OVCAR-3 cells = assay: Cell Growth Inhibition, OVCAR-3 (CellTiterGlo, 6 days); type: cell-based; settings: Homo sapiens, 144 h, OVCAR-3, 6-day treatment
Excerpt: (§2) MCF-7 and OVCAR-3 cells were used to evaluate the anti-proliferation activity of the CDK inhibitors. MCF-7 (ATCC, HTB-22) cells are epithelial cells from a patient with ER+ metastatic adenocarcinoma. OVCAR-3 (ATCC, HTB-161) cells were derived from malignant ascites of a patient with ovarian cancer and are known to have CCNE1 amplification. Both cell lines were maintained in RPMI media supplemented with 10% fetal bovine serum. For cell growth inhibition assay, CDK inhibitors in DMSO solution were dispensed with either Echo 655 (Beckman Coulter) or Tecan D300e (HP) into 384-well plates (Corning #3765) and the 384-well plates were UV-sterilized prior to the assay. The inhibitors were typically tested in the 10-10,000 nM concentration range with half-log serial dilutions. MCF-7 or OVCAR-3 (500 cells/30 μL/well) were added to each well using Multidrop Combi (ThermoFisher) using standard cassettes. The assay plates with cells were cultured at 37° C., 5% CO2 for 6 days. At the end of the 6-day treatment, 30 μL of CellTiterGlo 2.0 (Promega) was added to each well and the luminescent signal was read using CLARIOstar plus (BMG). The percentage of cell growth inhibition (% CGI) was calculated using the following formula 00 CGI=100-100×luminescencesampie/luminescencecontroi. The half maximal inhibitory concentration (IC50) was determined by nonlinear curve fitting (four parameters, variable slope).

MCF-7 cells = assay: Cell Growth Inhibition, MCF-7 (CellTiterGlo, 6 days); type: cell-based; settings: Homo sapiens, MCF7, 144 h, MCF-7, 6-day treatment
Excerpt: as §2

Sequence of CDK6/Cyclin D3 (Q00534 whole entry): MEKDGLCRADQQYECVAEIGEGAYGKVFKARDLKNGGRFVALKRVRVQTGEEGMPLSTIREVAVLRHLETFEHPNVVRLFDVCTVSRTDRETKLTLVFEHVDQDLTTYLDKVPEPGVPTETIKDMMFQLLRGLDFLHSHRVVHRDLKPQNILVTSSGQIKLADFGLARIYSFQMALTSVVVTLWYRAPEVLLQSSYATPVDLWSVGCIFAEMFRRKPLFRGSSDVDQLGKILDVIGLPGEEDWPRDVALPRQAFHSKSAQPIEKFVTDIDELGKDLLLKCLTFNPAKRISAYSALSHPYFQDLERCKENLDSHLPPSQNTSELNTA
Sequence of CDK6/Cyclin D3 (P30281 whole entry partner): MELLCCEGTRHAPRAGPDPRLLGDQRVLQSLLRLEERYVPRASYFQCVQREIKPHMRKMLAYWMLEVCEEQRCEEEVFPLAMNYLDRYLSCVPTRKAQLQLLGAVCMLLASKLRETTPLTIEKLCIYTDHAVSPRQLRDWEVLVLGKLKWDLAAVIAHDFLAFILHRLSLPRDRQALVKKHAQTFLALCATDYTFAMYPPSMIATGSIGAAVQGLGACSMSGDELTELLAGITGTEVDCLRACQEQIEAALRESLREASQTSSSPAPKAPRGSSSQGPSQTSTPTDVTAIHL
Sequence of CDK4/Cyclin D1 (P11802 whole entry): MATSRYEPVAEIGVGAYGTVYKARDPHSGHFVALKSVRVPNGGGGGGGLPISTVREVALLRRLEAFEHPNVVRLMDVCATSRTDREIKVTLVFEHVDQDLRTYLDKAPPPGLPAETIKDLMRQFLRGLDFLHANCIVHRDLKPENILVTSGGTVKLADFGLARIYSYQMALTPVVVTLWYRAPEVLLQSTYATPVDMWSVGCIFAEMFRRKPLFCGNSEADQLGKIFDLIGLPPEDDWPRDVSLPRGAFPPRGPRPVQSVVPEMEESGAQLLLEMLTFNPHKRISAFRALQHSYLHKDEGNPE
Sequence of CDK4/Cyclin D1 (P24385 whole entry partner): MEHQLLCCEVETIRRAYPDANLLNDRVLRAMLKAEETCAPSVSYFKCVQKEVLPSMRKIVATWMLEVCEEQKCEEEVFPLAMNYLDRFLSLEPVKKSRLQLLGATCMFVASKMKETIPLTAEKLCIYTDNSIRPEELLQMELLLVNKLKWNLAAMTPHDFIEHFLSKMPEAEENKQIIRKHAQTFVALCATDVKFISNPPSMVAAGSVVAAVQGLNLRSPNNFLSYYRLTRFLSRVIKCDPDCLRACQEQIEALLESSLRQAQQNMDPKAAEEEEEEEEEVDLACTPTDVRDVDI
Sequence of CDK1/Cyclin B1 (P06493 whole entry): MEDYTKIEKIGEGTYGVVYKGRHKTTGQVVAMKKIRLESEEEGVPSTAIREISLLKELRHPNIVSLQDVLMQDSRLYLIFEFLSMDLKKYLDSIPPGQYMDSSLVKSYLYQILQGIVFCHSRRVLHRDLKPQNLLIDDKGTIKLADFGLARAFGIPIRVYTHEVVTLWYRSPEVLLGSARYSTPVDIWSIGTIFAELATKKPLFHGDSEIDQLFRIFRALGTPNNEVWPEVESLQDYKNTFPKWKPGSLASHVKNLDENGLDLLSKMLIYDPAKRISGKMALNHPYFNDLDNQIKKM
Sequence of CDK1/Cyclin B1 (P14635 whole entry partner): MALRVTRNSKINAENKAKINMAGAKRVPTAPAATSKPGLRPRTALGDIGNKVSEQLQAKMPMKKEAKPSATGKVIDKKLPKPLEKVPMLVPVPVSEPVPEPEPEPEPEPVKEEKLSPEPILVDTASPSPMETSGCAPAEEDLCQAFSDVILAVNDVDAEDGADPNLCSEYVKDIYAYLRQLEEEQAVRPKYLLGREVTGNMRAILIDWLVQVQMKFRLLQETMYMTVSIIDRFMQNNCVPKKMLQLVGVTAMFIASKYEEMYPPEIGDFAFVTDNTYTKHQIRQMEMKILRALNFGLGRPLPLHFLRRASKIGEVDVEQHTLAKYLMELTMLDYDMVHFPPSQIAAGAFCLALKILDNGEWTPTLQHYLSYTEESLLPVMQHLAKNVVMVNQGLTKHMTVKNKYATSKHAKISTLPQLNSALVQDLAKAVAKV

Structure (SMILES) | IC50 (CDK6/Cyclin D3) [nM] | IC50 (CDK4/Cyclin D1) [nM] | IC50 (CDK2/Cyclin E1) [nM] | IC50 (CDK1/Cyclin B1) [nM] | IC50 (OVCAR-3 cells) [nM] | IC50 (MCF-7 cells) [nM]
Cc1cc2cnc(NC3CCN(S(=O)(=O)C4CC4)CC3)nc2c(N2CC(F)(F)C3(CN(C)C3)C2)n1 [Compound 102, N-(1-(cyclopropylsulfonyl)piperidin-4-yl)-8-(8,8-difluoro-2-methyl-2,6-diazaspiro[3.4]octan-6-yl)-6-methylpyrido[3,4-d]pyrimidin-2-amine] | < 200 | < 200 | < 200 | < 200 | – | –
Cc1cc2cnc(NC3CCN(S(C)(=O)=O)CC3)nc2c(N2CC3(CN(C)CC3(F)F)C2)n1 [Compound 101, 8-(8,8-difluoro-6-methyl-2,6-diazaspiro[3.4]octan-2-yl)-6-methyl-N-(1-(methylsulfonyl)piperidin-4-yl)pyrido[3,4-d]pyrimidin-2-amine] | < 200 | < 200 | < 200 | 200 to 500 | – | –
Cc1cc2cnc(NC3CCN(S(C)(=O)=O)CC3)nc2c(C2CC(C)(CO)C2)n1 (stereo not shown) [Compound 69, (1-methyl-3-(6-methyl-2-((1-(methylsulfonyl)piperidin-4-yl)amino)pyrido[3,4-d]pyrimidin-8-yl)cyclobutyl)methanol] | < 200 | < 200 | < 200 | < 200 | – | –
Cc1cc2cnc(NC3CCN(S(C)(=O)=O)CC3)nc2c(N2CC3(CNCC3F)C2)n1 (stereo not shown) [Compound 98, 8-(8-fluoro-2,6-diazaspiro[3.4]octan-2-yl)-6-methyl-N-(1-(methylsulfonyl)piperidin-4-yl)pyrido[3,4-d]pyrimidin-2-amine] | 200 to 500 | < 200 | < 200 | 200 to 500 | – | –
Cc1cc2cnc(NC3CCN(S(C)(=O)=O)CC3)nc2c(N2CC3(C2)CN(C2CC2)C3)n1 [Compound 42, 8-(6-cyclopropyl-2,6-diazaspiro[3.3]heptan-2-yl)-6-methyl-N-(1-(methylsulfonyl)piperidin-4-yl)pyrido[3,4-d]pyrimidin-2-amine] | – | – | – | > 2000 | 500 to 2000 | 500 to 2000
Cc1cc2cnc(NC3CCN(S(C)(=O)=O)CC3)nc2c(N2CC3(CN(C)C[C@@H]3F)C2)n1 [Compound 103, (R)-8-(8-fluoro-6-methyl-2,6-diazaspiro[3.4]octan-2-yl)-6-methyl-N-(1-(methylsulfonyl)piperidin-4-yl)pyrido[3,4-d]pyrimidin-2-amine] | < 200 | < 200 | – | – | – | –

Continued, values first:

IC50 (CDK6/Cyclin D3) [nM] | IC50 (CDK4/Cyclin D1) [nM] | IC50 (CDK2/Cyclin E1) [nM] | IC50 (CDK1/Cyclin B1) [nM] | IC50 (OVCAR-3 cells) [nM] | IC50 (MCF-7 cells) [nM] | Structure (SMILES)
< 200 | < 200 | < 200 | 200 to 500 | – | – | Cc1cc2cnc(NC3CCN(S(C)(=O)=O)CC3)nc2c(C2CC(O)(C3CC3)C2)n1 (stereo not shown) [Example 88, 1-cyclopropyl-3-(6-methyl-2-((1-(methylsulfonyl)piperidin-4-yl)amino)pyrido[3,4-d]pyrimidin-8-yl)cyclobutan-1-ol]
– | – | – | < 200 | 500 to 2000 | 500 to 2000 | CS(=O)(=O)N1CCC(Nc2ncc3ccnc(N4C[C@H]5c6ccccc6S(=O)(=O)[C@H]5C4)c3n2)CC1 [Compound 16, (3aR,8bR)-2-(2-((1-(methylsulfonyl)piperidin-4-yl)amino)pyrido[3,4-d]pyrimidin-8-yl)-2,3,3a,8b-tetrahydro-1H-benzo[4,5]thieno[2,3-c]pyrrole 4,4-dioxide]
200 to 500 | 200 to 500 | < 200 | 200 to 500 | – | – | Cc1cc2cnc(NC3CCN(S(C)(=O)=O)CC3)nc2c(N2CC3(CCC(=O)NC3)C2)n1 [Compound 82, 2-(6-methyl-2-((1-(methylsulfonyl)piperidin-4-yl)amino)pyrido[3,4-d]pyrimidin-8-yl)-2,6-diazaspiro[3.5]nonan-7-one]
200 to 500 | < 200 | – | – | – | – | Cc1cc2cnc(NC3CCN(S(C)(=O)=O)CC3)nc2c(N2CC3(CN(C)C[C@H]3F)C2)n1 [Compound 104, (S)-8-(8-fluoro-6-methyl-2,6-diazaspiro[3.4]octan-2-yl)-6-methyl-N-(1-(methylsulfonyl)piperidin-4-yl)pyrido[3,4-d]pyrimidin-2-amine]
